Earlier results as cited in patent US12280067B2 (Phenolics, LLC, priority 2019, dated 2025).

Key:
Caco-2 monolayers = conditions: Dash et al. 2001
[1] = rats, injected intravenously
[2] = oral, 6-week period, versus creatine monohydrate

Permeability via Caco-2 monolayers (Caco-2 monolayers) | Structure (SMILES) | ATP levels in red blood cells [1] | Bio-transformation and elimination in the body [1] | Effectiveness in achieving lean body mass, desired body weight and improved strength [2]
quite low | CN(CC(=O)O)C(=N)N [creatine] |  |  | 
 | CN(CC(=O)O)C(=N)NP(=O)(O)O [phosphocreatine, N-Methyl-N-(phosphono-carbamimidoyl)glycine] | significant elevation | very rapidly | as effective as creatine monohydrate
